Laboratory results published in patent publication US20070043003A1, “Novel compounds for the prophylaxis and treatment of inflammatory bowel diseases” (Hikma Pharmaceuticals Co., Ltd., priority 2005, published 2007).
Several values for one entry are separate records, joined by “and”; a condition that tells them apart may be missing. Identical values can stand only once.

What was measured:
[1] = test system: TNB (trinitrobenzenesulfonic acid)-induced ulcerative colitis; experiment: Rats with TNB-induced ulcerative colitis, macroscopic and microscopic examination of intestine, colon and cecum; type: in vivo, rat; parameters: key to Overall degree of inflammation / Mucosal inflammation and ulceration / Submucosal inflammation / Full thickness inflammation: − = No inflammation (normal); ± = Very minimal mucosal inflammation; + = Mild; +2 = Moderate; +3 = Severe; conditions: for Full thickness inflammation / Mucosal inflammation and ulceration / Overall degree of inflammation / Submucosal inflammation: one rat per row; for activity against intestinal bowel disease: compared to the known compound 5ASA
Method: Rats with TNB (trinitrobenzenesulfonic acid)-induced ulcerative colitis were used as an animal model. 28 rats were randomly grouped (A, B, C1, C2, D1 and D2). Group A is used as positive control and each of the other three groups received a predetermined dose of compounds under testing (see Table 3). Animals were fasted for one night before taking the TNB solution. All animals received a solution (0.25 ml) of TNB in methylcelullose solution (50% methylcellulose in absolute ethanol) containing 20 mg of TNB. The TNB solution was administered by intracolonic administration using a syringe and rubber canula. The canula was inserted into the lumen of the colon via the anus. The cannula was advanced so that its tip was 8 cm from the anus. […] Group A took 0.5 ml of the suspension containing 2.5 mg of methylcellulose solution twice daily. • 2. […] The treatments were given for eight days, and on the 9th day the animals were sacrificed and opened along their abdomen for evaluation. The animals were subjected to the following testing • 1. Physical testing, as looking at the weight, […], general health, etc. • 2. Looking at the intestine before opening, colouration, thickness, etc. 3. Dissecting the intestine the colon and the cecum and examining them macroscopically and microscopically.

[2] = upon oral administration; cited from earlier work
[3] = Group B: 5 mg 5ASA orally twice daily for eight days
[4] = Group C-1: 18 mg compound 9 orally twice daily for eight days
[5] = Group C-2: 28 mg compound 9 orally twice daily for eight days
[6] = Group D-1: 12 mg compound 5 orally twice daily for eight days
[7] = Group D-2: 18 mg compound 5 orally twice daily for eight days

For `Nc1ccc(O)c(C(=O)O)c1` [5ASA, 5-aminosalicylic acid, reference compound], the Full thickness inflammation [1, 3] was “+”, the “Mucosal inflammation and ulceration” value [1, 3] was “+” and the “Overall degree of inflammation” value [1, 3] was “+2 (4×) and +3 and +1”. For the same compound, the Submucosal inflammation [1, 3] was “+”.
For `O=C(O)c1cc(N=Nc2ccc(S(=O)(=O)Nc3ccccn3)cc2)ccc1O` [SS, 2-Hydroxy-5-[4-(2-pyridylsulfamoyl)phenylazo]benzoic acid], the “fraction of a given dose absorbed from the small intestine” value [2] is given as “about one-third”.
For `O=C(O)Cc1ccc2oc(-c3ccc(N=Nc4ccc(O)c(C(=O)O)c4)cc3)nc2c1` [compound 9, 2-Hydroxy-5-[4-(benzoxazol-2-yl-5-acetic acid)phenylazo]benzoic acid], the Full thickness inflammation [1, 4] was “−”, the “Mucosal inflammation and ulceration” value [1, 4] was “− and + (5×)” and the “Overall degree of inflammation” value [1, 4] was “− and ± (3×) and +1 (2×)”. The Submucosal inflammation [1, 4] was “− (3×) and ± and + (2×)”, the Full thickness inflammation [1, 5] was “−” and the “Mucosal inflammation and ulceration” value [1, 5] was “+”. For the same compound, the “Overall degree of inflammation” value [1, 5] was “± (2×) and +1”, the Submucosal inflammation [1, 5] was “± (2×) and +” and the “activity against intestinal bowel disease” value [1] was “significantly higher activity”.
In the case of `Nc1ccc(-c2nc3cc(CC(=O)O)ccc3o2)cc1` [compound 5, 4-aminophenylbenzoxazole-5-acetic acid], the Full thickness inflammation [1, 6] is reported as “+ (3×) and − (2×)”, the “Mucosal inflammation and ulceration” value [1, 6] is reported as “+ (4×) and −” and the “Overall degree of inflammation” value [1, 6] is reported as “+1 (3×) and ± and −”. For the same compound, the Submucosal inflammation [1, 6] was “+ (3×) and − (2×)”, the Full thickness inflammation [1, 7] was “−” and the “Mucosal inflammation and ulceration” value [1, 7] was “+”. The “Overall degree of inflammation” value [1, 7] was “+1”, the Submucosal inflammation [1, 7] was “+” and the “activity against intestinal bowel disease” value [1] was “significantly higher activity”.
